The numbers were not newly measured in patent EP2594258B1, “Oral gel comprising praziquantel” (Veterinärmedizinische Universität Wien, priority 2011, dated 2013), which cites them from elsewhere.

Take `O=C(C1CCCCC1)N1CC(=O)N2CCc3ccccc3C2C1` (racemic) [Praziquantel, (RS)-2-Cyclohexylcarbonyl-2,3,4,6,7,11b-hexahydro-1H-pyrazino(2,1-a) isoquinolin-4-on]: the solubility in chloroform entry (chloroform) is given as “easily soluble”. Further, the solubility in dimethylsulfoxide result (dimethylsulfoxide) is reported as “easily soluble”. Besides, the solubility in ethanol entry (ethanol) is listed as “soluble”. For the same compound, under “water”, the solubility in water result is on record as “up to 400 mg/L”.

On to `CCCSc1ccc2nc(NC(=O)OC)[nH]c2c1` [albendazole], for which, in the data set with alpacas, the intoxication following treatment entry is “Lethal intoxications”.
